# Measurements from patent US12485089B1, “Adhering lozenge with high amount of sparsely soluble active ingredient” (Quest Products, LLC, priority 2025, dated 2025).
# Experiment: Time to complete dissolution of compressed tablets of bulking agents/compression binders in water
# Type: physicochemical
# Details: 750 mg tablet, 12 mm diameter, pressed at 32 kN, 1.5 L water in 2 L beaker, room temperature (69° F.)
# Excerpt: To compare the speed of dissolution of any ingredients acting as a binder and/or bulking agent to the speed of dissolution of isomalt, a tablet can be formed of each and the time of dissolution for each can be measured. As used herein, the term “rate of dissolution” when comparing one or more binder and bulking agent ingredients to isomalt refers to the following procedure. The tablets should have the same diameter, shape, and weight and should be prepared by pressing with the same compression force (e.g., 32 kN) using a tablet press. Two equal beakers (e.g., 2 L) each containing an equal amount of distilled water (e.g., 1.5 L) and each at the same room temperature (i.e., at 69° F.) and atmospheric pressure are prepared. One tablet containing isomalt (commercially available FCC or USP grade isomalt particles) is placed in one of the beakers of water. The other tablet formed of the test binder and/or bulking agent are placed in the other of the beakers of water. The two beakers are then visually observed to determine which of the tablets dissolves completely first.
# To identify suitable bulking agents and compression binders that dissolve quickly enough to allow suitable release of the preferred amount of antacid particles having low solubility in saliva, tablets of equal diameter (12 mm) and a weight of 750 mg±4 mg were made with commercially available particles of the bulking agents and/or compression binders listed in the table below, each compressed using a tablet press by placing the ingredients in a die and pressing with an equal pressure of 32 kN±3 kN to form the tablets. The tablets were simultaneously placed in equal size beakers (2 L) each containing an equal amount of water (1.5 L±15 mL) at room temperature (69° F.) and the time to complete dissolution was measured for each tablet. The dissolution times are shown below.
row,Compound,Dissolution time
1,OC[C@@H](O)[C@@H](O[C@H]1O[C@H](CO)[C@@H](O)[C@H](O)[C@H]1O)[C@H](O)[C@@H](O)CO [Maltitol],29 min
2,OC[C@@H](O)[C@@H](O)[C@H](O)[C@H](O)CO [Mannitol],50 min
3,OC[C@@H](O)[C@@H](O)[C@H](O)[C@@H](O)CO [Sorbitol],20 min
4,Isomalt,38 min
